Data from ChEMBL document CHEMBL6177973, “A Novel Compound 3a-M1, from Metabolites of Sinomenine Derivative 3a, Exerts Potent Anti-Aplastic Anemia Activity via IP3R/ORAI-Mediated CTL Ferroptosis” (J Med Chem, 2025).
Activity calls are given as the source filed them. The calls are words filed in the database; no cut-off is given here.

Assays:
[1] = Drug metabolism in rat plasma assessed as double hydrolyzation/demethylation-mediated metabolite formation at 50 mg/kg, po measured for 24 hrs by HRMS analysis; assay type: ADME, organism-based; conditions: in vivo
[2] = Drug metabolism in rat plasma assessed as double hydrolyzation/double hydroxylation-mediated metabolite formation at 50 mg/kg, po measured for 24 hrs by HRMS analysis; assay type: ADME, organism-based; conditions: in vivo
[3] = Drug metabolism in rat plasma assessed as hydrolyzation/double hydroxylation-mediated metabolite formation at 50 mg/kg, po measured for 24 hrs by HRMS analysis; assay type: ADME, organism-based; conditions: in vivo
[4] = Drug metabolism in mouse plasma assessed as cinnamic acid metabolite formation administered orally by HRMS analysis; assay type: ADME; conditions: po
[5] = Drug metabolism in mouse spleen assessed as (4bR,9S)-1-(hydroxymethyl)-3,7-dimethoxy-11-methyl-6-oxo-6,8a,9,10-tetrahydro-5H-9,4b-(epiminoethano)phenanthren-4-yl cinnamate metabolite formation at 50 mg/kg, po measured for 0.083 to 8 hrs by HPLC analysis; assay type: ADME, organism-based; conditions: in vivo, time 0.083-8 hrs
[6] = Stability in mouse bone marrow assessed as compound remaining at 50 mg/kg, po measured for 0.083 to 8 hrs by HPLC analysis; assay type: ADME, organism-based; conditions: in vivo, time 0.083-8 hrs
[7] = Stability in mouse kidney assessed as compound remaining at 50 mg/kg, po measured for 0.083 to 8 hrs by HPLC analysis; assay type: ADME, organism-based; conditions: in vivo, time 0.083-8 hrs
[8] = Drug metabolism in Sprague-Dawley rat plasma assessed as cinnamic acid metabolite formation at 5 mg/kg, iv measured for 24 hrs by HPLC analysis; assay type: ADME, organism-based; conditions: in vivo
[9] = Drug metabolism in mouse bone marrow assessed as cinnamic acid metabolite formation at 50 mg/kg, po measured for 0.083 to 8 hrs by HPLC analysis; assay type: ADME, organism-based; conditions: in vivo, time 0.083-8 hrs
[10] = Drug metabolism in mouse thymus assessed as cinnamic acid metabolite formation at 50 mg/kg, po measured for 0.083 to 8 hrs by HPLC analysis; assay type: ADME, organism-based; conditions: in vivo, time 0.083-8 hrs
[11] = Oral bioavailability in Sprague-Dawley rat at 50 mg/kg measured for 0.083 to 24 hrs by HPLC analysis; assay type: ADME, organism-based; conditions: in vivo, time 0.083-24 hrs
Mus musculus [12] = assay: Anti-aplastic anemia activity in BALB/c mouse model of immune-mediated bone marrow failure assessed as increase in animal survival at 10 mg/kg, po treated for 14 days; assay type: functional, organism-based; conditions: time 14.0 day
Mus musculus [13] = assay: Anti-aplastic anemia activity in BALB/c mouse model of immune-mediated bone marrow failure assessed as increase in peripheral red blood cells at 10 mg/kg, po treated for 14 days; assay type: functional, organism-based; conditions: time 14.0 day
Mus musculus [14] = assay: Anti-aplastic anemia activity in BALB/c mouse model of immune-mediated bone marrow failure assessed as increase in hemoglobin level at 10 mg/kg, po treated for 14 days; assay type: functional, organism-based; conditions: time 14.0 day
Mus musculus [15] = assay: Anti-aplastic anemia activity in BALB/c mouse model of immune-mediated bone marrow failure assessed as increase in platelet cells at 10 mg/kg, po treated for 14 days; assay type: functional, organism-based; conditions: time 14.0 day
Mus musculus [16] = assay: Anti-aplastic anemia activity in BALB/c mouse model of immune-mediated bone marrow failure assessed as increase in nucleated cells in bone marrow at 10 mg/kg, po treated for 14 days by H and E staining based analysis; assay type: functional, organism-based; conditions: time 14.0 day
Mus musculus [17] = assay: Anti-aplastic anemia activity in BALB/c mouse model of immune-mediated bone marrow failure assessed as restoration of nucleated to red blood cell ratio in bone marrow at 10 mg/kg, po treated for 14 days by H and E staining based analysis; assay type: functional, organism-based; conditions: time 14.0 day
Mus musculus [18] = assay: Anti-aplastic anemia activity in C57BL/6J mouse model of immune-mediated bone marrow failure assessed as increase in peripheral red blood cells treated intragastrically once daily for 21 days; assay type: functional, organism-based; conditions: dose 5-15 mg/kg, route ig, time 21.0 day
Mus musculus [19] = assay: Anti-aplastic anemia activity in C57BL/6J mouse model of immune-mediated bone marrow failure assessed as increase in hemoglobin level treated intragastrically once daily for 21 days; assay type: functional, organism-based; conditions: dose 5-15 mg/kg, route ig, time 21.0 day
Mus musculus [20] = assay: Anti-aplastic anemia activity in C57BL/6J mouse model of immune-mediated bone marrow failure assessed as increase in white blood cells treated intragastrically once daily for 21 days; assay type: functional, organism-based; conditions: dose 5-15 mg/kg, route ig, time 21.0 day
Mus musculus [21] = assay: Anti-aplastic anemia activity in C57BL/6J mouse model of immune-mediated bone marrow failure assessed as CD4+ T cells at 5 mg/kg, IG qd treated for 12 days by flow cytometry (reference value: 12.93 %); assay type: functional; conditions: time 12 day
Mus musculus [22] = assay: Anti-aplastic anemia activity in C57BL/6J mouse model of immune-mediated bone marrow failure assessed as decrease in CD8+ T cells at 5 to 15 mg/kg, IG qd treated for 12 days by flow cytometry; assay type: functional, organism-based; conditions: dose 5-15 mg/kg, time 12.0 day
Mus musculus [23] = assay: Anti-aplastic anemia activity in C57BL/6J mouse model of immune-mediated bone marrow failure assessed as decrease in ratio of CD8+ to CD4+ T cells at 5 to 15 mg/kg, IG qd treated for 12 days by flow cytometry; assay type: functional, organism-based; conditions: dose 5-15 mg/kg, time 12.0 day
Mus musculus [24] = assay: Anti-aplastic anemia activity in C57BL/6J mouse model of immune-mediated bone marrow failure assessed as reduction in IFN-gamma level at 5 to 15 mg/kg, IG qd treated for 12 days by ELISA; assay type: functional, organism-based; conditions: dose 5-15 mg/kg, time 12.0 day
Mus musculus [25] = assay: Anti-aplastic anemia activity in C57BL/6J mouse model of immune-mediated bone marrow failure assessed as reduction in cytotoxic T lymphocytes hyperactivation at 5 to 15 mg/kg, IG qd treated for 12 days; assay type: functional, organism-based; conditions: dose 5-15 mg/kg, time 12.0 day
CTLL-2 [26] = assay: Cytotoxicity against mouse CTLL-2 cells assessed as inhibition of cell viability incubated for 72 hrs by CCK8 assay; assay type: functional, cell-based; conditions: CTLL-2, 72 h, read-out: IC50
THP-1 = assay: Cytotoxicity against human THP-1 cells assessed as inhibition of cell viability incubated for 72 hrs by CCK8 assay; assay type: functional, cell-based; conditions: THP-1, 72 h
HL-60 = assay: Cytotoxicity against human HL-60 cells assessed as inhibition of cell viability incubated for 72 hrs by CCK8 assay; assay type: functional, cell-based; conditions: HL-60, 72 h
HepG2 = assay: Cytotoxicity against human HepG2 cells assessed as inhibition of cell viability incubated for 72 hrs by CCK8 assay; assay type: functional, cell-based; conditions: HepG2, 72 h
CTLL-2 [27] = assay: Induction of ferroptosis in mouse CTLL-2 cells assessed as decrease in GSH level incubated for 16 hrs; assay type: functional, cell-based; conditions: dose 7.5-30 µM
CTLL-2 [28] = assay: Induction of ferroptosis in mouse CTLL-2 cells assessed as increase in mitochondrial superoxide level incubated for 16 hrs by MitoSOX Red staining based fluorescent microscopy; assay type: functional, cell-based; conditions: dose 7.5-30 µM
CTLL-2 [29] = assay: Induction of ferroptosis in IL-2-stimulated mouse CTLL-2 cells assessed as increase in intracellular lipid peroxidation level at 30 uM incubated for 6 hrs followed by Fer-1 addition measured after 10 hrs by flow cytometry; assay type: functional, cell-based; conditions: time 16.0 hrs
[30] = Induction of ferroptosis in mouse CTLL-2 cells assessed as increase in intracellular Ca2+ concentration incubated for 45 mins by Fluo-4 AM dye based analysis; assay type: functional, cell-based; conditions: CTLL-2, 0.75 h
CTLL-2 [31] = assay: Induction of ferroptosis in mouse CTLL-2 cells assessed as increase in intracellular Ca2+ concentration at 10 uM incubated for 45 mins in presence of 2-APB by Fluo-4 AM dye based analysis; assay type: functional, cell-based
CTLL-2 [32] = assay: Induction of ferroptosis in mouse CTLL-2 cells assessed as increase in intracellular Ca2+ concentration at 10 uM incubated for 45 mins in presence of CM4620 by Fluo-4 AM dye based analysis; assay type: functional, cell-based

For `COC1=C[C@@H]2[C@@H]3Cc4c(COC(=O)/C=C/c5ccccc5)cc(OC)c(OC(=O)/C=C/c5ccccc5)c4[C@]2(CCN3C)CC1=O`, the Drug metabolism [1] was “metabolite_detected”, the Drug metabolism [2] was “metabolite_detected” and the Drug metabolism [3] was “metabolite_detected”. The Drug metabolism [4] was “metabolite_detected”, the Drug metabolism [5] was “metabolite_detected” and the Stability [6] was “Unstable”. The Stability [7] was “Unstable”, the Drug metabolism [8] was “metabolite_detected” and the Drug metabolism [9] was “metabolite_detected”. For the same compound, the Drug metabolism [10] was “metabolite_detected”, the bioavailability [11] was 18% and the Activity (Mus musculus [12]) was “Active”.

With `COC1=C[C@@H]2[C@@H]3Cc4c(CO)cc(OC)c(OC(=O)/C=C/c5ccccc5)c4[C@]2(CCN3C)CC1=O` the bioavailability [11] was 59.2%, the Activity (Mus musculus [12]) was “Active; All Mice Survived” and the Activity (Mus musculus [13]) was “Active”. For the same compound, the Activity (Mus musculus [14]) was “Active”, the Activity (Mus musculus [15]) was “Active” and the Activity (Mus musculus [16]) was “Active”. The Activity (Mus musculus [17]) was “Active”, the Activity (Mus musculus [18]) was “Dose-dependent-effect” and the Activity (Mus musculus [19]) was “Dose-dependent-effect”. For the same compound, the Activity (Mus musculus [20]) was “Dose-dependent-effect”, the Activity (Mus musculus [21]) was 11.38% and the Activity (Mus musculus [22]) was “Active”. For the same compound, the Activity (Mus musculus [23]) was “Active”, the Activity (Mus musculus [24]) was “Active” and the Activity (Mus musculus [25]) was “Active”. The IC50 (CTLL-2 [26]) was 37.9 µM, the IC50 (THP-1) was 125 µM and the IC50 (HL-60) was 133 µM. For the same compound, the IC50 (HepG2) was 492 µM, the Activity (CTLL-2 [27]) was “Dose-dependent-effect” and the Activity (CTLL-2 [28]) was “Dose-dependent-effect”. The Activity (CTLL-2 [29]) was “inactive”, the EC50 [30] was 10.1 µM and the Activity (CTLL-2 [31]) was “inactive”. The Activity (CTLL-2 [32]) was “inactive”.
